According to US11820766B2, “Monoacylglycerol lipase modulators” (Janssen Pharmaceutica NV, priority 2018, dated 2023):
Counter-ions that a name gives are not always drawn.

molecular target: T1, human MGL from HeLa cells (Homo sapiens, UniProt Q99685); experiment: In vitro MGL activity assay: [glycerol-1,3-3H]-oleyl glycerol cleavage by MGL from HeLa cells; format: biochemical; settings: 300 nM [Glycerol-1,3-3H]-oleyl glycerol, one hour
T1 construct: combining endogenously expressed MGL from HeLa cells with test compounds; endogenous in cells; host or cells: HeLa cells / cell homogenates
T1 sequence (Q99685 1-303): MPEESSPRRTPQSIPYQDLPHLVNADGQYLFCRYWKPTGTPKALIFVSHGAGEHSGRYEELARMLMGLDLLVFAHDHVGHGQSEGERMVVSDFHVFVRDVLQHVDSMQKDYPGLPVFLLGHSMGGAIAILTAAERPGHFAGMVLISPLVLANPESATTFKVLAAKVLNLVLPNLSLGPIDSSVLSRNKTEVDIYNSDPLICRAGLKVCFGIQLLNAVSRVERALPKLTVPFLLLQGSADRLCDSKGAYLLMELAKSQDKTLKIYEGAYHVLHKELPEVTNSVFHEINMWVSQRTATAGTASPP
Excerpt: MGL is the predominant hydrolase in HeLa cells/cell homogenates.

Row | Compound | IC50
1 | C[C@H]1c2nn(C)c(-c3cc(F)c(F)c(F)c3)c2CCN1C(=O)c1cccc2c1CCOC2 [Example 576, [(7S)-2,7-Dimethyl-3-(3,4,5-trifluorophenyl)-5,7-dihydro-4H-pyrazolo[3,4-c]pyridin-6-yl]-isochroman-5-yl-methanone] | 18.9 nM
2 | C[C@H]1c2nn(C)c(-c3cc(F)c(F)c(F)c3)c2CCN1C(=O)c1ccc2c(c1)COCC2 [Example 577, [(7S)-2,7-Dimethyl-3-(3,4,5-trifluorophenyl)-5,7-dihydro-4H-pyrazolo[3,4-c]pyridin-6-yl]-isochroman-7-yl-methanone] | 32.2 nM
3 | C[C@H]1c2nn(C)c(-c3cc(F)c(F)c(F)c3)c2CCN1C(=O)c1ccc2c(c1)CCOC2 [Example 578, [(7S)-2,7-Dimethyl-3-(3,4,5-trifluorophenyl)-5,7-dihydro-4H-pyrazolo[3,4-c]pyridin-6-yl]-isochroman-6-yl-methanone] | 27.4 nM
4 | C[C@H]1c2nn(C)c(-c3cc(F)c(F)c(F)c3)c2CCN1C(=O)c1cccc2c1COCC2 [Example 579, [(7S)-2,7-Dimethyl-3-(3,4,5-trifluorophenyl)-5,7-dihydro-4H-pyrazolo[3,4-c]pyridin-6-yl]-isochroman-8-yl-methanone] | 8.18 nM
5 | C[C@H]1c2nn(C)c(-c3cc(F)c(F)c(F)c3)c2CCN1C(=O)c1ccc2c(c1)CCCO2 [Example 580, Chroman-6-yl-[(7S)-2,7-dimethyl-3-(3,4,5-trifluorophenyl)-5,7-dihydro-4H-pyrazolo[3,4-c]pyridin-6-yl]methanone] | 19.6 nM
6 | C[C@H]1c2nn(C)c(-c3cc(F)c(F)c(F)c3)c2CCN1C(=O)c1cccc2c1CCCO2 [Example 581, Chroman-5-yl-[(7S)-2,7-dimethyl-3-(3,4,5-trifluorophenyl)-5,7-dihydro-4H-pyrazolo[3,4-c]pyridin-6-yl]methanone] | 15.6 nM
7 | C[C@H]1c2nn(C)c(-c3cc(F)c(F)c(F)c3)c2CCN1C(=O)c1ccc2c(c1)OCCC2 [Example 582, Chroman-7-yl-[(7S)-2,7-dimethyl-3-(3,4,5-trifluorophenyl)-5,7-dihydro-4H-pyrazolo[3,4-c]pyridin-6-yl]methanone] | 7.52 nM
8 | C[C@H]1c2nn(C)c(-c3cc(F)c(F)c(F)c3)c2CCN1C(=O)c1cccc2c1OCCC2 [Example 583, Chroman-8-yl-[(7S)-2,7-dimethyl-3-(3,4,5-trifluorophenyl)-5,7-dihydro-4H-pyrazolo[3,4-c]pyridin-6-yl]methanone] | 1.42 nM
9 | C[C@H]1c2nn(C)c(-c3cc(F)c(F)c(F)c3)c2CCN1C(=O)c1cccc2oc(=O)[nH]c12 [Example 584, 4-[(7S)-2,7-Dimethyl-3-(3,4,5-trifluorophenyl)-5,7-dihydro-4H-pyrazolo[3,4-c]pyridine-6-carbonyl]-3H-1,3-benzoxazol-2-one] | 300 nM
10 | C[C@H]1c2nn(C)c(-c3cc(F)c(F)c(F)c3)c2CCN1C(=O)c1cccc2oc(=O)n(C)c12 [Example 585, 4-[(7S)-2,7-Dimethyl-3-(3,4,5-trifluorophenyl)-5,7-dihydro-4H-pyrazolo[3,4-c]pyridine-6-carbonyl]-3-methyl-1,3-benzoxazol-2-one] | 25.4 nM
11 | C[C@H]1c2nn(C)c(-c3cc(F)c(F)c(F)c3)c2CCN1C(=O)c1ccc2oc(=O)[nH]c2c1 [Example 586, 5-[(7S)-2,7-Dimethyl-3-(3,4,5-trifluorophenyl)-5,7-dihydro-4H-pyrazolo[3,4-c]pyridine-6-carbonyl]-3H-1,3-benzoxazol-2-one] | 1000 nM
12 | C[C@H]1c2nn(C)c(-c3cc(F)c(F)c(F)c3)c2CCN1C(=O)c1cccc2[nH]c(=O)oc12 [Example 587, 7-[(7S)-2,7-Dimethyl-3-(3,4,5-trifluorophenyl)-5,7-dihydro-4H-pyrazolo[3,4-c]pyridine-6-carbonyl]-3H-1,3-benzoxazol-2-one] | 13.4 nM
13 | C[C@H]1c2nn(C)c(-c3cc(F)c(F)c(F)c3)c2CCN1C(=O)c1ccc2[nH]c(=O)oc2c1 [Example 588, 6-[(7S)-2,7-Dimethyl-3-(3,4,5-trifluorophenyl)-5,7-dihydro-4H-pyrazolo[3,4-c]pyridine-6-carbonyl]-3H-1,3-benzoxazol-2-one] | 11.3 nM
14 | C[C@H]1c2nn(C)c(-c3cc(F)c(F)c(F)c3)c2CCN1C(=O)c1cccc2c1oc(=O)n2C [Example 589, 7-[(7S)-2,7-dimethyl-3-(3,4,5-trifluorophenyl)-5,7-dihydro-4H-pyrazolo[3,4-c]pyridine-6-carbonyl]-3-methyl-1,3-benzoxazol-2-one] | 1.84 nM
15 | C[C@H]1c2nn(C)c(-c3cc(F)c(F)c(F)c3)c2CCN1C(=O)c1ccc2c(c1)OCC(=O)N2C [Example 590, 7-[(7S)-2,7-Dimethyl-3-(3,4,5-trifluorophenyl)-5,7-dihydro-4H-pyrazolo[3,4-c]pyridine-6-carbonyl]-4-methyl-1,4-benzoxazin-3-one.TFA salt] | 173 nM
16 | C[C@H]1c2nn(C)c(-c3cc(F)c(F)c(F)c3)c2CCN1C(=O)c1cccc2c1OCC(=O)N2C [Example 591, [(7S)-2,7-8-[(7S)-2,7-Dimethyl-3-(3,4,5-trifluorophenyl)-5,7-dihydro-4H-pyrazolo[3,4-c]pyridine-6-carbonyl]-4-methyl-1,4-benzoxazin-3-one.TFA salt] | 4.18 nM
17 | C[C@H]1c2nn(C)c(-c3cc(F)c(F)c(F)c3)c2CCN1C(=O)c1cccc2c1OCCN2 [Example 592, 3,4-Dihydro-2H-1,4-benzoxazin-8-yl-[(7S)-2,7-dimethyl-3-(3,4,5-trifluorophenyl)-5,7-dihydro-4H-pyrazolo[3,4-c]pyridin-6-yl]methanone] | 7.31 nM
18 | COc1nccc(C(=O)N2CCc3c(nn(C)c3-c3ccc(F)c(C(F)F)c3)[C@@H]2C)c1C [Example 593, [(7S)-3-[3-(Difluoromethyl)-4-fluoro-phenyl]-2,7-dimethyl-5,7-dihydro-4H-pyrazolo[3,4-c]pyridin-6-yl]-(2-methoxy-3-methyl-4-pyridyl)methanone] | 57 nM
19 | COc1nccc(C(=O)N2CCc3c(nn(C)c3-c3cccc(C(C)(F)F)c3)[C@@H]2C)c1C [Example 594, [(7S)-3-[3-(1,1-Difluoroethyl)phenyl]-2,7-dimethyl-5,7-dihydro-4H-pyrazolo[3,4-c]pyridin-6-yl]-(2-methoxy-3-methyl-4-pyridyl)methanone] | 335 nM
20 | COc1nccc(C(=O)N2CCc3c(nn(C)c3-c3ccc(F)c(OC(F)F)c3)[C@@H]2C)c1C [Example 595, [(7S)-3-[3-(Difluoromethoxy)-4-fluoro-phenyl]-2,7-dimethyl-5,7-dihydro-4H-pyrazolo[3,4-c]pyridin-6-yl]-(2-methoxy-3-methyl-4-pyridyl)methanone] | 106 nM
21 | C[C@H]1c2nn(C)c(-c3cc(F)cc(OC(F)F)c3)c2CCN1C(=O)c1ccc2c(c1)OCCC2 [Example 596, Chroman-7-yl-[(7S)-3-[3-(difluoromethoxy)-5-fluoro-phenyl]-2,7-dimethyl-5,7-dihydro-4H-pyrazolo[3,4-c]pyridin-6-yl]methanone] | 28.7 nM
22 | COc1nccc(C(=O)N2CCc3c(nn(C)c3-c3cc(F)cc(OC(F)F)c3)[C@@H]2C)c1C [Example 597, [(7S)-3-[3-(Difluoromethoxy)-5-fluoro-phenyl]-2,7-dimethyl-5,7-dihydro-4H-pyrazolo[3,4-c]pyridin-6-yl]-(2-methoxy-3-methyl-4-pyridyl)methanone] | 25 nM
